Source: ChEMBL document CHEMBL1147043, “Comparative metabolism of radiolabeled muraglitazar in animals and humans by quantitative and qualitative metabolite profiling” (Drug Metab Dispos, 2007)

How the values were obtained:
[1] = Half life in human at 10 mg, po after 72 hrs; format: ADME, organism-based; settings: in vivo
Rattus norvegicus [2] = assay: Biodistribution in orally dosed Sprague-Dawley rat urine assessed as 17-hydroxy-O-demethyl muraglitazar level by LC/MS analysis; format: ADME, organism-based; settings: in vivo, po
[3] = Metabolic stability in CD1 mouse hepatocytes assessed as muraglitazar 12-carboxylic acid level by LC/MS analysis relative to control; format: ADME, cell-based, Hepatocyte
[4] = Drug concentration in bile duct-cannulated cynomolgus monkey bile at 5 mg/kg, po after 48 hrs; format: ADME, organism-based, Macaca fascicularis; design: dose 5 mg/kg, route oral; settings: in vivo
[5] = Biodistribution in orally dosed cynomolgus monkey feces assessed as O-dealkyl-O-demethyl muraglitazar level by LC/MS analysis; format: ADME, organism-based, Macaca fascicularis; settings: in vivo, po
Plasma [6] = assay: Biodistribution in orally dosed Beagle dog plasma assessed as muraglitazar glucuronide level after 1 hr by LC/MS analysis; format: ADME, organism-based, Canis lupus familiaris; settings: in vivo, po
[7] = Metabolic stability in CD1 mouse hepatocytes assessed as 12,17-dihydroxy muraglitazar level by LC/MS analysis relative to control; format: ADME, cell-based, Hepatocyte
Rattus norvegicus [8] = assay: Biodistribution in orally dosed Sprague-Dawley rat urine assessed as 17-hydroxy muraglitazar level by LC/MS analysis; format: ADME, organism-based; settings: in vivo, po
[9] = Biodistribution in orally dosed cynomolgus monkey feces assessed as 8-hydroxy-O-demethyl muraglitazar level by LC/MS analysis; format: ADME, organism-based, Macaca fascicularis; settings: in vivo, po
[10] = Biodistribution in orally dosed cynomolgus monkey feces assessed as 8,12-dihydroxy muraglitazar level by LC/MS analysis; format: ADME, organism-based, Macaca fascicularis; settings: in vivo, po
[11] = Biodistribution in orally dosed human feces assessed as 9-hydroxy-O-demethyl muraglitazar level by LC/MS analysis; format: ADME, organism-based; settings: in vivo, po
[12] = Biodistribution in orally dosed cynomolgus monkey feces assessed as muraglitazar 12-carboxylic acid level by LC/MS analysis; format: ADME, organism-based, Macaca fascicularis; settings: in vivo, po
[13] = Drug concentration in Sprague-Dawley rat feces assessed as recovery of radioactive dose at 11 mg/kg, po after 168 hrs; format: ADME, organism-based; design: dose 11 mg/kg, route oral; settings: in vivo
Hepatocyte [14] = assay: Metabolic stability in human hepatocytes assessed as 17-hydroxy muraglitazar level by LC/MS analysis relative to control; format: ADME, cell-based
Plasma [15] = assay: Biodistribution in orally dosed cynomolgus monkey plasma assessed as 12-hydroxy-O-demethyl muraglitazar level after 1 hr by LC/MS analysis; format: ADME, organism-based, Macaca fascicularis; settings: in vivo, po
[16] = Biodistribution in orally dosed cynomolgus monkey urine assessed as O-dealkyl-O-demethyl muraglitazar level by LC/MS analysis; format: ADME, organism-based, Macaca fascicularis; settings: in vivo, po
[17] = Drug concentration in bile duct-cannulated Sprague-Dawley rat feces assessed as recovery of radioactive dose at 11 mg/kg, po after 24 hrs; format: ADME, organism-based; design: dose 11 mg/kg, route oral; settings: in vivo
[18] = Biodistribution in orally dosed cynomolgus monkey feces assessed as 17-hydroxy-O-demethyl muraglitazar level by LC/MS analysis; format: ADME, organism-based, Macaca fascicularis; settings: in vivo, po
[19] = Metabolic stability in CD1 mouse hepatocytes assessed as 17-hydroxy-O-demethyl muraglitazar level by LC/MS analysis relative to control; format: ADME, cell-based, Hepatocyte
[20] = Drug concentration in bile duct-cannulated cynomolgus monkey bile assessed as recovery of radioactive dose at 5 mg/kg, po after 48 hrs; format: ADME, organism-based, Macaca fascicularis; design: dose 5 mg/kg, route oral; settings: in vivo
[21] = Biodistribution in orally dosed cynomolgus monkey feces assessed as acetylimide derivative of muraglitazar level by LC/MS analysis; format: ADME, organism-based, Macaca fascicularis; settings: in vivo, po
Plasma [22] = assay: Biodistribution in orally dosed cynomolgus monkey plasma assessed as 12-dihydroxy muraglitazar level after 1 hr by LC/MS analysis; format: ADME, organism-based, Macaca fascicularis; settings: in vivo, po
[23] = Biodistribution in orally dosed cynomolgus monkey urine assessed as 17-hydroxy-O-demethyl muraglitazar level by LC/MS analysis; format: ADME, organism-based, Macaca fascicularis; settings: in vivo, po
Hepatocyte [24] = assay: Metabolic stability in human hepatocytes assessed as di-oxygenated muraglitazar level by LC/MS analysis relative to control; format: ADME, cell-based
[25] = Metabolic stability in cynomolgus monkey hepatocytes assessed as di-oxygenated muraglitazar level by LC/MS analysis relative to control; format: ADME, cell-based, Macaca fascicularis, Hepatocyte
Plasma [26] = assay: Biodistribution in orally dosed cynomolgus monkey plasma assessed as O-demethyl muraglitazar level after 4 hrs by LC/MS analysis; format: ADME, organism-based, Macaca fascicularis; settings: in vivo, po
Hepatocyte [27] = assay: Metabolic stability in human hepatocytes assessed as O-dealkyl-O-demethyl muraglitazar level by LC/MS analysis relative to control; format: ADME, cell-based
Rattus norvegicus [28] = assay: Biodistribution in orally dosed Sprague-Dawley rat feces assessed as 8-hydroxy muraglitazar level by LC/MS analysis; format: ADME, organism-based; settings: in vivo, po
[29] = Metabolic stability in CD1 mouse hepatocytes assessed as di-oxygenated muraglitazar level by LC/MS analysis relative to control; format: ADME, cell-based, Hepatocyte
Plasma [30] = assay: Biodistribution in orally dosed human plasma assessed as O-Dealkyl muraglitazar level after 4 hrs by LC/MS analysis; format: ADME, organism-based; settings: in vivo, po
Hepatocyte [31] = assay: Metabolic stability in Sprague-Dawley rat hepatocytes assessed as muraglitazar 12-carboxylic acid level by LC/MS analysis relative to control; format: ADME, cell-based
[32] = Biodistribution in orally dosed cynomolgus monkey urine assessed as 12-hydroxy muraglitazar level by LC/MS analysis; format: ADME, organism-based, Macaca fascicularis; settings: in vivo, po
Hepatocyte [33] = assay: Metabolic stability in Sprague-Dawley rat hepatocytes assessed as O-demethyl muraglitazar level by LC/MS analysis relative to control; format: ADME, cell-based
Plasma [34] = assay: Biodistribution in orally dosed Beagle dog plasma assessed as O-demethyl muraglitazar level after 4 hrs by LC/MS analysis; format: ADME, organism-based, Canis lupus familiaris; settings: in vivo, po
[35] = Biodistribution in orally dosed human feces assessed as 12,17-dihydroxy muraglitazar level by LC/MS analysis; format: ADME, organism-based; settings: in vivo, po
[36] = Fecal excretion of compound in orally dosed human within 96 hrs; format: ADME, organism-based; settings: faeces, po, read-out: Activity
Canis familiaris = assay: Cmax in Beagle dog at 2 mg/kg, po after 4 hrs; format: ADME, organism-based, Canis lupus familiaris; design: dose 2 mg/kg, route oral; settings: in vivo
[37] = Biodistribution in orally dosed human urine assessed as O-dealkyl muraglitazar level by LC/MS analysis; format: ADME, organism-based; settings: in vivo, po
Hepatocyte [38] = assay: Metabolic stability in human hepatocytes assessed as O-Dealkyl muraglitazar level by LC/MS analysis relative to control; format: ADME, cell-based
[39] = Metabolic stability in CD1 mouse hepatocytes assessed as O-Dealkyl muraglitazar level by LC/MS analysis relative to control; format: ADME, cell-based, Hepatocyte
Plasma [40] = assay: Biodistribution in orally dosed Sprague-Dawley rat plasma assessed as O-demethyl muraglitazar level after 4 hrs by LC/MS analysis; format: ADME, organism-based; settings: in vivo, po
[41] = Drug concentration in bile duct-cannulated Sprague-Dawley rat bile at 10 mg/kg, po after 24 hrs; format: ADME, organism-based; design: dose 10 mg/kg, route oral; settings: in vivo
[42] = Drug concentration in bile duct-cannulated CD1 mouse urine assessed as recovery of radioactive dose at 1 mg/kg, po after 24 hrs; format: ADME, organism-based; design: dose 1 mg/kg, route oral; settings: in vivo

With COc1ccc(OC(=O)N(CC(=O)O)Cc2ccc(OCCc3nc(-c4ccccc4)oc3C)cc2)cc1 [MURAGLITAZAR] as the compound, how does the half-life [1] read?
The half-life was 19.8 h.

What about the Drug uptake (Rattus norvegicus [2]) of the same compound?
Its Drug uptake is 0.01%.

What about the Drug uptake [3] of the same compound?
The Drug uptake was 0.8%.

What about the Drug uptake [4] of the same compound?
Its Drug uptake is 0.007 mgequiv/ml.

What about the Drug uptake [5] of the same compound?
Its Drug uptake is 0.4%.

What about the Drug uptake (Plasma [6]) of the same compound?
The Drug uptake was under 0.05%.

What about the Drug uptake [7] of the same compound?
Its Drug uptake is 0.8%.

And the Drug uptake (Rattus norvegicus [8])?
The Drug uptake was under 0.01%.

And the Drug uptake [9]?
The Drug uptake was 1.29%.

And the Drug uptake [10]?
Its Drug uptake is 2.41%.

What about the Drug uptake [11] of the same compound?
The Drug uptake was 2.21%.

And the Drug uptake [12]?
Its Drug uptake is 1.61%.

What about the Drug uptake [13] of the same compound?
The Drug uptake was 87.7%.

What about the Drug uptake (Hepatocyte [14]) of the same compound?
The Drug uptake was 4.4%.

What about the Drug uptake (Plasma [15]) of the same compound?
Its Drug uptake is 1.5%.

What about the Drug uptake [16] of the same compound?
Its Drug uptake is 0.33%.

What about the Drug uptake [17] of the same compound?
The Drug uptake was 0.55%.

What about the Drug uptake [18] of the same compound?
Its Drug uptake is 3.22%.

What about the Drug uptake [19] of the same compound?
The Drug uptake was 0.3%.

And the Drug uptake [20]?
Its Drug uptake is 35.7%.

And the Drug uptake [21]?
The Drug uptake was 0.16%.

And the Drug uptake (Plasma [22])?
Its Drug uptake is 0.9%.

And the Drug uptake [23]?
Its Drug uptake is 0.01%.

What about the Drug uptake (Hepatocyte [24]) of the same compound?
The Drug uptake was 4.5%.

And the Drug uptake [25]?
The Drug uptake was 1.3%.

And the Drug uptake (Plasma [26])?
The Drug uptake was 0.3%.

And the Drug uptake (Hepatocyte [27])?
Its Drug uptake is under 0.2%.

What about the Drug uptake (Rattus norvegicus [28]) of the same compound?
Its Drug uptake is 4.39%.

What about the Drug uptake [29] of the same compound?
The Drug uptake was 1.4%.

And the Drug uptake (Plasma [30])?
The Drug uptake was under 0.05%.

And the Drug uptake (Hepatocyte [31])?
The Drug uptake was under 0.2%.

And the Drug uptake [32]?
The Drug uptake was 0.04%.

What about the Drug uptake (Hepatocyte [33]) of the same compound?
Its Drug uptake is 2.2%.

What about the Drug uptake (Plasma [34]) of the same compound?
Its Drug uptake is 3%.

And the Drug uptake [35]?
The Drug uptake was 0.56%.

And the dose excreted at 96 h [36]?
Its dose excreted at 96 h is 80%.

What about the Cmax (Canis familiaris) of the same compound?
The Cmax was 1 ugequiv/ml.

What about the Drug uptake [37] of the same compound?
Its Drug uptake is 0.06%.

And the Drug uptake (Hepatocyte [38])?
The Drug uptake was 5.7%.

And the Drug uptake [39]?
The Drug uptake was 23.6%.

And the Drug uptake (Plasma [40])?
Its Drug uptake is 2.1%.

And the Drug uptake [41]?
Its Drug uptake is 0.289 mgequiv/ml.

What about the Drug uptake [42] of the same compound?
Its Drug uptake is 8.3%.
